Laboratory results reported in ChEMBL document CHEMBL4251656, “Design, synthesis, and biological evaluation of novel catecholopyrimidine based PDE4 inhibitor for the treatment of atopic dermatitis” (Eur J Med Chem, 2018).
Active and inactive are the calls of the source. No cut-off for these calls is given here.

Experiments:
[1] = target: T1, 3',5'-cyclic-AMP phosphodiesterase 4B (Homo sapiens, UniProt Q07343); test: Inhibition of recombinant full length human N-terminal GST-tagged PDE4B1 expressed in baculovirus infected Sf9 cells using cAMP as substrate after 1 hr by LANCE TR-FRET assay
[2] = target: T2, 3',5'-cyclic-AMP phosphodiesterase 4A (Homo sapiens, UniProt P27815); test: Inhibition of recombinant full length human N-terminal GST-tagged PDE4A1 expressed in baculovirus infected Sf9 cells using cAMP as substrate after 1 hr by LANCE TR-FRET assay
[3] = target: cGMP-inhibited 3',5'-cyclic phosphodiesterase 3B (Homo sapiens, UniProt Q13370); test: Inhibition of recombinant human N-terminal GST-tagged PDE3B (592-end residues) expressed in baculovirus infected Sf9 cells using cAMP as substrate after 1 hr by LANCE TR-FRET assay
[4] = target: Dual 3',5'-cyclic-AMP and -GMP phosphodiesterase 11A (Homo sapiens, UniProt Q9HCR9); test: Inhibition of PDE11A (unknown origin) using cAMP as substrate after 1 hr by LANCE TR-FRET assay
[5] = target: T2, 3',5'-cyclic-AMP phosphodiesterase 4A; test: Inhibition of recombinant human N-terminal GST-tagged PDE4A4 (2 to 886 residues) expressed in baculovirus infected Sf9 cells using cAMP as substrate after 1 hr by LANCE TR-FRET assay
[6] = target: T1, 3',5'-cyclic-AMP phosphodiesterase 4B; test: Inhibition of recombinant human full length N-terminal GST-tagged PDE4B1 expressed in baculovirus infected Sf9 cells using cAMP as substrate after 1 hr by LANCE TR-FRET assay
[7] = target: 3',5'-cyclic-AMP phosphodiesterase 4C (Homo sapiens, UniProt Q08493); test: Inhibition of recombinant human full length N-terminal GST-tagged PDE4C1 expressed in baculovirus infected Sf9 cells using cAMP as substrate after 1 hr by LANCE TR-FRET assay
[8] = target: 3',5'-cyclic-AMP phosphodiesterase 4D (Homo sapiens, UniProt Q08499); test: Inhibition of recombinant human N-terminal GST-tagged PDE4D7 (2 to 748 residues) expressed in baculovirus infected Sf9 cells using cAMP as substrate after 1 hr by LANCE TR-FRET assay
Homo sapiens = organism: Homo sapiens; test: Selectivity ratio of IC50 for nhibition of recombinant human N-terminal GST-tagged PDE4D7 (2 to 748 residues) expressed in baculovirus infected Sf9 cells to IC50 for recombinant full length human N-terminal GST-tagged PDE4B1 expressed in baculovirus infected Sf9 cells
Mus musculus [9] = test: Reversal of DNCB-induced atopic dermatitis-like symptoms in Balb/c mouse assessed as reduction in erythema administered topically once daily starting from day 6 post DNCB treatment up to 34 days; type: functional, organism-based
Mus musculus [10] = test: Reversal of DNCB-induced atopic dermatitis-like symptoms in Balb/c mouse assessed as reduction in hemorrhage administered topically once daily starting from day 6 post DNCB treatment up to 34 days; type: functional, organism-based
Mus musculus [11] = test: Reversal of DNCB-induced atopic dermatitis-like symptoms in Balb/c mouse assessed as reduction in edema administered topically once daily starting from day 6 post DNCB treatment up to 34 days; type: functional, organism-based
Mus musculus [12] = test: Reversal of DNCB-induced atopic dermatitis-like symptoms in Balb/c mouse assessed as reduction in excoriation administered topically once daily starting from day 6 post DNCB treatment up to 34 days; type: functional, organism-based
Mus musculus [13] = test: Reversal of DNCB-induced atopic dermatitis-like symptoms in Balb/c mouse assessed as reduction in skin erosion administered topically once daily starting from day 6 post DNCB treatment up to 34 days; type: functional, organism-based
Mus musculus [14] = test: Reversal of DNCB-induced atopic dermatitis-like symptoms in Balb/c mouse assessed as reduction in skin scaling or dryness administered topically once daily starting from day 6 post DNCB treatment up to 34 days; type: functional, organism-based
Mus musculus [15] = test: Reversal of DNCB-induced atopic dermatitis-like symptoms in Balb/c mouse assessed as reduction in scratching frequency administered topically once daily starting from day 6 post DNCB treatment up to 34 days; type: functional, organism-based
Mus musculus [16] = test: Reversal of DNCB-induced atopic dermatitis-like symptoms in Balb/c mouse assessed as reduction in hypertrophy administered topically once daily starting from day 6 post DNCB treatment up to 34 days by hematoxylin and eosin staining based light microscopic method; type: functional, organism-based
Mus musculus [17] = test: Reversal of DNCB-induced atopic dermatitis-like symptoms in Balb/c mouse assessed as reduction in signs of edema administered topically once daily starting from day 6 post DNCB treatment up to 34 days by hematoxylin and eosin staining based light microscopic method; type: functional, organism-based
Mus musculus [18] = test: Toxicity in Balb/c mouse assessed as induction of allergy administered topically once daily up to 34 days; type: organism-based; details: in vivo, topical_or_ocular, 816 h
Mus musculus [19] = test: Toxicity in Balb/c mouse assessed as effect on skin architecture administered topically once daily up to 34 days by hematoxylin and eosin staining based light microscopic method; type: organism-based; details: in vivo, topical_or_ocular, 816 h
Mus musculus [20] = test: Reversal of DNCB-induced atopic dermatitis-like symptoms in Balb/c mouse assessed as dorsal skin thickness administered topically once daily starting from day 6 post DNCB treatment up to 34 days (reference value: 1.19 millimeter); type: functional
Mus musculus [21] = test: Reversal of DNCB-induced atopic dermatitis-like symptoms in Balb/c mouse assessed as reduction in epidermal hyperplasia administered topically once daily starting from day 6 post DNCB treatment up to 34 days by hematoxylin and eosin staining based light microscopic method; type: functional, organism-based
Mus musculus [22] = test: Reversal of DNCB-induced atopic dermatitis-like symptoms in Balb/c mouse assessed as reduction in hyperkeratosis administered topically once daily starting from day 6 post DNCB treatment up to 34 days by hematoxylin and eosin staining based light microscopic method; type: functional, organism-based
Mus musculus [23] = test: Reversal of DNCB-induced atopic dermatitis-like symptoms in Balb/c mouse assessed as reduction in inflammatory cell infilteration in epidermal and dermal region of skin administered topically once daily starting from day 6 post DNCB treatment up to 34 days by toluidine blue staining based light microscopic method; type: functional, organism-based
Mus musculus [24] = test: Reversal of DNCB-induced atopic dermatitis-like symptoms in Balb/c mouse assessed as reduction in epidermal thickness administered topically once daily starting from day 6 post DNCB treatment up to 34 days by hematoxylin and eosin staining based light microscopic method; type: functional, organism-based
Mus musculus [25] = test: Reversal of DNCB-induced atopic dermatitis-like symptoms in Balb/c mouse assessed as reduction in serum Ig-E level administered topically once daily starting from day 6 post DNCB treatment up to 34 days; type: functional, organism-based
Mus musculus [26] = test: Reversal of DNCB-induced atopic dermatitis-like symptoms in Balb/c mouse assessed as reduction in TNF-alpha level in skin administered topically once daily starting from day 6 post DNCB treatment up to 34 days; type: functional, organism-based

Dual 3',5'-cyclic-AMP and -GMP phosphodiesterase 11A, sequence (Q9HCR9 whole entry, the tested form may be a part): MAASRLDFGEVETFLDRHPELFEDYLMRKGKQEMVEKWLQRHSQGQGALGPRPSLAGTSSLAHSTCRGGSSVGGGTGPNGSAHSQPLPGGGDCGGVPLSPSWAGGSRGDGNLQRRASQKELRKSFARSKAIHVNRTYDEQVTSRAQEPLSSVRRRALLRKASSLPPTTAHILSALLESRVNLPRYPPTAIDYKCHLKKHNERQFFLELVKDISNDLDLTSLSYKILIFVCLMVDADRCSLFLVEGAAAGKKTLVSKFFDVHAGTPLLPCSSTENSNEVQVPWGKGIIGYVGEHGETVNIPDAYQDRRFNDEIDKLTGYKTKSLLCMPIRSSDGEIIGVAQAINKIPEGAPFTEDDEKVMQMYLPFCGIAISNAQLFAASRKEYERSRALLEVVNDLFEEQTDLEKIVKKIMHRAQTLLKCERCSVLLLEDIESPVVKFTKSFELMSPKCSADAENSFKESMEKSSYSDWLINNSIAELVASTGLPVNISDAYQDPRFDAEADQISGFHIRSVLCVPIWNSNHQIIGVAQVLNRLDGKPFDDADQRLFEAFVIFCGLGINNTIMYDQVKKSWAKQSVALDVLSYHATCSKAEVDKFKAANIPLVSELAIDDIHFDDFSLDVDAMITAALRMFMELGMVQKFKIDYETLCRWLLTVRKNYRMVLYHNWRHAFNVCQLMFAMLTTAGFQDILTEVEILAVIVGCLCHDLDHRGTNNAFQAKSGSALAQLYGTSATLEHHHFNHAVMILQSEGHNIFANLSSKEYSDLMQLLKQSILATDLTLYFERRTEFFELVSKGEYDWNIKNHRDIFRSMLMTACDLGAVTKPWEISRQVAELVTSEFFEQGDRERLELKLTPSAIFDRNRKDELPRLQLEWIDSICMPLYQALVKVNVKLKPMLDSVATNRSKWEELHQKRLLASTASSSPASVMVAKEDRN
3',5'-cyclic-AMP phosphodiesterase 4D, sequence (Q08499 whole entry, the tested form may be a part): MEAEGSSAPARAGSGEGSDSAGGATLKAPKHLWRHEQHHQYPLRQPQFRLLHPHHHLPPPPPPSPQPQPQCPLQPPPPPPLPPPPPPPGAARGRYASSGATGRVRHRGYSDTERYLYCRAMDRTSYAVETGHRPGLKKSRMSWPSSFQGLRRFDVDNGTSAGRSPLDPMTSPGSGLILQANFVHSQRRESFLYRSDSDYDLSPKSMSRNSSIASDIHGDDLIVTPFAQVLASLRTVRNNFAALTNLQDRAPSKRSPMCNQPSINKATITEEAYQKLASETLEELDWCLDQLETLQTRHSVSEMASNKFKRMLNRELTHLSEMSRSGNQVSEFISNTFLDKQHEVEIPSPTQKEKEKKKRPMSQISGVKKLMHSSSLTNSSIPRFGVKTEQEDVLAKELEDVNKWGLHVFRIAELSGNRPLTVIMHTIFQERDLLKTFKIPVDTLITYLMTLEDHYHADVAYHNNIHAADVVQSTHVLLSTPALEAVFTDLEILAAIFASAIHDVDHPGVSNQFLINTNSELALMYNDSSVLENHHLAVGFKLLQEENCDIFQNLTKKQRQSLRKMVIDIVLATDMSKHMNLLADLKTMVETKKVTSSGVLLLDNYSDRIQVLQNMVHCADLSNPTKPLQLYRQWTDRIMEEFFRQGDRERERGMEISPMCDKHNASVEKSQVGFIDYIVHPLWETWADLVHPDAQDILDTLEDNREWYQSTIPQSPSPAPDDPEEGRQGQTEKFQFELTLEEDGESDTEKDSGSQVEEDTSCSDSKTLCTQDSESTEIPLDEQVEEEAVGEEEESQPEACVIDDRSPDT
T1 sequence (Q07343 whole entry): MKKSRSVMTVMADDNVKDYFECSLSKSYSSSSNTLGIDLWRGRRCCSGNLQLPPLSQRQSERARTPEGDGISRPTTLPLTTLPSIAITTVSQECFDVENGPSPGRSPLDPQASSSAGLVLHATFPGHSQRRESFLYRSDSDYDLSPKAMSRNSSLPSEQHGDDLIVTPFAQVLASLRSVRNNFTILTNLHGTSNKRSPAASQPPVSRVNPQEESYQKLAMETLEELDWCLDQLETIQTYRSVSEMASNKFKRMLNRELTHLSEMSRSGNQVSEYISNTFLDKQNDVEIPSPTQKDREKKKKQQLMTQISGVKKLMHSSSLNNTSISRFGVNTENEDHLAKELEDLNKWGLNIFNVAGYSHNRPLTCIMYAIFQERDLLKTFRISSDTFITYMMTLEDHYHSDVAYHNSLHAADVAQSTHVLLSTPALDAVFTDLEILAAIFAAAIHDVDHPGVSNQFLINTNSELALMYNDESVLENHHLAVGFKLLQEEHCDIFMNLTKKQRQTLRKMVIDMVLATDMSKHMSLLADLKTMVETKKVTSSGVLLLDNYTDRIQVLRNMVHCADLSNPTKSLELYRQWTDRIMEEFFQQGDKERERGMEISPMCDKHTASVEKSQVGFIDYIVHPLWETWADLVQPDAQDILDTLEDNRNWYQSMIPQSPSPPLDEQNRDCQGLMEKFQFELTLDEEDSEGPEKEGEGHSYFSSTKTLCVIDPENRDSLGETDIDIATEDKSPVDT
3',5'-cyclic-AMP phosphodiesterase 4C, sequence (Q08493 whole entry, the tested form may be a part): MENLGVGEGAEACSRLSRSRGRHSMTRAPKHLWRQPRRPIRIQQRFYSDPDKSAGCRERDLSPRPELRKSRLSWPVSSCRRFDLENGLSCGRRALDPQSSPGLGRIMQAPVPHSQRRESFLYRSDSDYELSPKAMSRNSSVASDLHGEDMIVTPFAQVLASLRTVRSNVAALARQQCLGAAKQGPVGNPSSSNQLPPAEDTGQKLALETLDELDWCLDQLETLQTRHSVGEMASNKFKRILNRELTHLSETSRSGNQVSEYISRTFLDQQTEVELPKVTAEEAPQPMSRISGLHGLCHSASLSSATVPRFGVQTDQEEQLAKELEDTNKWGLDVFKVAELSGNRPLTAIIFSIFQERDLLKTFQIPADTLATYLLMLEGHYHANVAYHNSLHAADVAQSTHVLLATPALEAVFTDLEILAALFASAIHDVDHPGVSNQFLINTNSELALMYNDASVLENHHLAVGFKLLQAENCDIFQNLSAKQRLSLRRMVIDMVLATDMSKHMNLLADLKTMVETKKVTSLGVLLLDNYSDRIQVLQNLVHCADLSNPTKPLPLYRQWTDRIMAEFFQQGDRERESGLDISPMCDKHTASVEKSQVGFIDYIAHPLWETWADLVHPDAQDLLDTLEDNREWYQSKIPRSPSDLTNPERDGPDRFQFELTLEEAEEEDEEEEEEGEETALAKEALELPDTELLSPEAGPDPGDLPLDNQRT
T2 sequence (P27815 whole entry): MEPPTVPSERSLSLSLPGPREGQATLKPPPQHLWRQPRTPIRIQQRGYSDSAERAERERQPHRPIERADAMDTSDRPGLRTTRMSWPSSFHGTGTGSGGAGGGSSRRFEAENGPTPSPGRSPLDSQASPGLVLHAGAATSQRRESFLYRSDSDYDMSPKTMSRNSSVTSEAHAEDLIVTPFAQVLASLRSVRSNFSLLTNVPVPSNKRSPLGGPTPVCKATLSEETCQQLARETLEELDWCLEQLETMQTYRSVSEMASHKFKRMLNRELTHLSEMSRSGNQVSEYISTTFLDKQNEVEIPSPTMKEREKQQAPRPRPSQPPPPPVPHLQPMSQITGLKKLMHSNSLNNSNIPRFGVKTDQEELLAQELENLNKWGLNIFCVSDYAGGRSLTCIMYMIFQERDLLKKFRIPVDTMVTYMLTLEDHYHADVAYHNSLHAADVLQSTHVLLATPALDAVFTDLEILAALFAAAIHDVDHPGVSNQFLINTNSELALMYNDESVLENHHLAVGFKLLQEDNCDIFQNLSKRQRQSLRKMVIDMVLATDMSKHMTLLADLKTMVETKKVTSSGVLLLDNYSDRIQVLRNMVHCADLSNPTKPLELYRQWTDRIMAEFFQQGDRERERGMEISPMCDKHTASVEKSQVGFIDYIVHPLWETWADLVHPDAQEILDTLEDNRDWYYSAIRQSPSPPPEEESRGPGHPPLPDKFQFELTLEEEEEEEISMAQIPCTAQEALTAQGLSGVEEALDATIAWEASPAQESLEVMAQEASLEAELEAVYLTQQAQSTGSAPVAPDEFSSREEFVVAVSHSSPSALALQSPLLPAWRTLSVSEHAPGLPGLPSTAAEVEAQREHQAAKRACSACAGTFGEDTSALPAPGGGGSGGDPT

Compound	IC50 [1]	IC50 [2]	IC50 [4]	IC50 [5]	IC50 [6]	IC50 [7]	IC50 [8]	further results
COc1ccc(-c2nc(C(F)(F)F)ncc2C(=O)Nc2c(C(C)C)cccc2C(C)C)cc1OC	222 nM	–	–	–	–	–	–	–
COc1ccc(-c2nc(C(F)(F)F)ncc2C(=O)Nc2c(Cl)cncc2Cl)cc1OC	–	281 nM	245 nM	89 nM	44 nM	39 nM	360 nM	IC50 [3]: 321 nM
COc1ccc(CCNC(=O)c2cnc(SC)nc2N2CCN(CCO)CC2)cc1OC	238 nM	–	–	–	–	–	–	–
COc1ccc(CCNC(=O)c2cnc(SC)nc2N2CCOCC2)cc1OC	61 nM	–	659 nM	284 nM	61 nM	326 nM	136 nM	–
COc1ccc(CCNC(=O)c2cnc(C(F)(F)F)nc2N2CCOCC2)cc1OC	150 nM	–	–	–	–	–	–	–
COc1ccc(NC(=O)c2cnc(C(F)(F)F)nc2N2CCOCC2)cc1OC	–	678 nM	1500 nM	100 nM	67 nM	156 nM	385 nM	IC50 [3]: 950 nM
COc1ccc(-c2nc(C(F)(F)F)ncc2C(=O)Nc2ccncc2)cc1OC	–	98 nM	250 nM	–	15 nM	–	–	Ratio IC50 (Homo sapiens): 7; Activity (Mus musculus [9]): Active; Activity (Mus musculus [10]): Active; Activity (Mus musculus [11]): Active; Activity (Mus musculus [12]): Active; Activity (Mus musculus [13]): Active; Activity (Mus musculus [14]): Active; Activity (Mus musculus [15]): Active; Activity (Mus musculus [16]): Active; Activity (Mus musculus [17]): Active; Activity (Mus musculus [18]): Non-Toxic; Activity (Mus musculus [19]): Non-Toxic; Activity (Mus musculus [20]): 0.71 mm; Activity (Mus musculus [21]): Active; Activity (Mus musculus [22]): Active; Activity (Mus musculus [23]): Active; Activity (Mus musculus [24]): Active; Activity (Mus musculus [25]): Active; Activity (Mus musculus [26]): Active
COc1ccc(NC(=O)c2cnc(SC)nc2N2CCOCC2)cc1OC	–	756 nM	480 nM	–	31 nM	–	–	–
